Measured values as given in article PMC7150870 (Toxins, 2020).
Marks after values point to notes of the source that are not given here.

Columns and labels:
HEK293T = type: cell-based, human
P-gp = P-gp (Homo sapiens, UniProt P08183)
Caco-2 cells [1] = settings: human (Caco-2), mouse (RAW 264.7)
cells = settings: cited from earlier work
in vitro = settings: human (HepG2, Caco-2, HEK 293T); mouse (RAW 264.7)
[2] = test system: human colon adenocarcinoma HT29 cells; settings: cited from earlier work
mice = settings: mouse, in vivo, po; cited from earlier work
[3] = test system: TK6, and human hepatic HepaRG cells; settings: 25 µM; cited from earlier work
epithelial cell layers = settings: after 24 h; cited from earlier work
Caco-2 cells [4] = settings: cited from earlier work
[5] = test system: human small intestinal cells; settings: read-out: IC50 (not achieved up to); cited from earlier work
HEK293 cells = settings: for 2 h; cited from earlier work
Caco-2 cells [6] = settings: cited from earlier work; remark: listed apart in the source

Chain of P-gp (P08183 whole entry, looked up): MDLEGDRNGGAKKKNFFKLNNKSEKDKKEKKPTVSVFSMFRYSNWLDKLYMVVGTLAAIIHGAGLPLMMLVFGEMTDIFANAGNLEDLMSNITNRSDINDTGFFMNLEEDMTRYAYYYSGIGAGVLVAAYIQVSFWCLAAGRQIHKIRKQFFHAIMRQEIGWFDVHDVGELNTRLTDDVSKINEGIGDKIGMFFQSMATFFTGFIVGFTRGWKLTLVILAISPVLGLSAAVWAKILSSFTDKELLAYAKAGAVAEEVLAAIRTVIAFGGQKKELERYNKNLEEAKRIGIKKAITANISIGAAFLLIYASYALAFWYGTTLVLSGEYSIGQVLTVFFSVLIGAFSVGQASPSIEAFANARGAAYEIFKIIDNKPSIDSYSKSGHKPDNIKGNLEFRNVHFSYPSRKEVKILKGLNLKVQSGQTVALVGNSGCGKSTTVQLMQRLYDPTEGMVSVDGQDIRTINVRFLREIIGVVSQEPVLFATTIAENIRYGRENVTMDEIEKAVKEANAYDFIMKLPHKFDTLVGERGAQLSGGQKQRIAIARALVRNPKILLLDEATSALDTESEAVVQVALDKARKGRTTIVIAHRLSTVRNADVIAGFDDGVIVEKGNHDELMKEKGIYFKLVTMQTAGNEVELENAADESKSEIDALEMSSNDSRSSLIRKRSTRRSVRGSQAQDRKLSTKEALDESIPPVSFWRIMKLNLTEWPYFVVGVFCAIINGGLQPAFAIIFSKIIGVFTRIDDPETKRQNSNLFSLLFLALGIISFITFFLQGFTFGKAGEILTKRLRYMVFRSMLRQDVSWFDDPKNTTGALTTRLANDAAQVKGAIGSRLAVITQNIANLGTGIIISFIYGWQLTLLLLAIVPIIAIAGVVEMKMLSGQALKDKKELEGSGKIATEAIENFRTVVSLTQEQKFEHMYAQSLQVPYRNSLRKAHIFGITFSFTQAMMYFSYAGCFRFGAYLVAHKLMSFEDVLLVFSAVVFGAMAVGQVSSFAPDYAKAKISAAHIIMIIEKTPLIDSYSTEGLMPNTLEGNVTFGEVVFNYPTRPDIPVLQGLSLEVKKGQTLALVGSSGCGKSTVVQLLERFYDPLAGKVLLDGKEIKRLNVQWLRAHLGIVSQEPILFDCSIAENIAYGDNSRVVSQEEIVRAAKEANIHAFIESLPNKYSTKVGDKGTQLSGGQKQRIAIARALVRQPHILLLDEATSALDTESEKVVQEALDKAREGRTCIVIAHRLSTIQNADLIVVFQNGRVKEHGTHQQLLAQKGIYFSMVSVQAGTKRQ

Row | SMILES | combination index, mixture of DAS (6.58 nM) (HEK293T) | combination index, mixture of HT-2 (21.22 nM) (HEK293T) | combination index, mixture of T-2 (3.87 nM) (HEK293T) | type of interaction, mixture of DAS (6.58 nM) (HEK293T) | type of interaction, mixture of HT-2 (21.22 nM) (HEK293T) | type of interaction, mixture of T-2 (3.87 nM) (HEK293T) | percentage of DNA in comet tail with respect to the negative control (HEK 293T cells) | P-gp activation (ATP consumption) (P-gp) | transepithelial transport, Apical Medium (Caco-2 cells [1]) | transepithelial transport, Basolateral Medium (Caco-2 cells [1]) | transepithelial transport, Caco-2 Cells (Caco-2 cells [1]) | transepithelial transport, Raw 264.7 Cells (Caco-2 cells [1]) | transepithelial transport, Total (Caco-2 cells [1]) | concentration with statistically significant decrease in viability of cells (cells) [µM] | IC50 (in vitro) [nM] | also measured
1 | Cc1cc(O)cc2oc(=O)c3c(O)cc(O)cc3c12 [AOH, alternariol] | 0.91 ± 0.07 Add | 0.92 ± 0.02 Add | 1.00 ± 0.09 Add | 0.91 ± 0.07 Add (key: Syn: Combination index (CI) < 0.9; Add: 0.9 ≤ CI ≤ 1; Ant: CI > 1) | 0.92 ± 0.02 Add (key: Syn: Combination index (CI) < 0.9; Add: 0.9 ≤ CI ≤ 1; Ant: CI > 1) | 1.00 ± 0.09 Add (key: Syn: Combination index (CI) < 0.9; Add: 0.9 ≤ CI ≤ 1; Ant: CI > 1) | significantly increased | activated P-gp in dose-dependent manner | 39.00 ± 22.02^cd % | 59.97 ± 2.86^h % | 0.04 ± 0.02^a % | 0.07 ± 0.02^h % | 99.08 ± 24.47^e % | 50 | > 50 | comet tails (percentage of DNA) (HEK 293T cells; 25 µM, 24 h): about 55%; metabolites found by non-target U-HPLC-MS analysis (Caco-2 cells [1]): 3-O-glucuronide and 9-O-glucuronide; concentrations significantly increasing the rate of DNA breaks [2]: ≥ 1000 nM
2 | CC1=C[C@H]2O[C@@H]3[C@H](O)C[C@](C)([C@@]2(CO)[C@H](O)C1=O)[C@]31CO1 [DON, deoxynivalenol] | 0.88 ± 0.17 Syn | 0.87 ± 0.04 Syn | 1.29 ± 0.13 Ant | 0.88 ± 0.17 Syn (key: Syn: Combination index (CI) < 0.9; Add: 0.9 ≤ CI ≤ 1; Ant: CI > 1) | 0.87 ± 0.04 Syn (key: Syn: Combination index (CI) < 0.9; Add: 0.9 ≤ CI ≤ 1; Ant: CI > 1) | 1.29 ± 0.13 Ant (key: Syn: Combination index (CI) < 0.9; Add: 0.9 ≤ CI ≤ 1; Ant: CI > 1) | significantly increased | activated P-gp in dose-dependent manner | 73.33 ± 2.90^f % | 21.48 ± 0.91^cde % | 0.00 ± 0.00^a % | 0.01 ± 0.00^a % | 94.83 ± 2.14^e % | 1 | – | LD50 for mice (mice): 46 to 78 mg/kg; genotoxicity [3]: failed to induce genotoxicity; transport through the epithelial cell layers (epithelial cell layers): up to 38%
3 | CC[C@H](C)[C@H]1C(=O)O[C@H](C(C)C)C(=O)N(C)[C@@H](C(C)C)C(=O)O[C@H](C(C)C)C(=O)N(C)[C@@H](C(C)C)C(=O)O[C@H](C(C)C)C(=O)N1C [ENN-B1, enniatin B1] | 0.82 ± 0.06 Syn | 0.90 ± 0.05 Add | 0.88 ± 0.07 Syn | 0.82 ± 0.06 Syn (key: Syn: Combination index (CI) < 0.9; Add: 0.9 ≤ CI ≤ 1; Ant: CI > 1) | 0.90 ± 0.05 Add (key: Syn: Combination index (CI) < 0.9; Add: 0.9 ≤ CI ≤ 1; Ant: CI > 1) | 0.88 ± 0.07 Syn (key: Syn: Combination index (CI) < 0.9; Add: 0.9 ≤ CI ≤ 1; Ant: CI > 1) | – | – | 10.46 ± 2.43^a % | 28.16 ± 3.37^e % | 0.51 ± 0.03^ab % | 0.60 ± 0.10^c % | 39.72 ± 4.74^ab % | 2 | > 50 | concentration with significant DNA damage (Caco-2 cells [4]): 3000 nM
4 | CC(C)[C@H]1C(=O)O[C@H](C(C)C)C(=O)N(C)[C@@H](C(C)C)C(=O)O[C@H](C(C)C)C(=O)N(C)[C@@H](C(C)C)C(=O)O[C@H](C(C)C)C(=O)N1C [ENN-B, enniatin B] | 0.79 ± 0.08 Syn | 0.87 ± 0.05 Syn | 1.11 ± 0.10 Ant | 0.79 ± 0.08 Syn (key: Syn: Combination index (CI) < 0.9; Add: 0.9 ≤ CI ≤ 1; Ant: CI > 1) | 0.87 ± 0.05 Syn (key: Syn: Combination index (CI) < 0.9; Add: 0.9 ≤ CI ≤ 1; Ant: CI > 1) | 1.11 ± 0.10 Ant (key: Syn: Combination index (CI) < 0.9; Add: 0.9 ≤ CI ≤ 1; Ant: CI > 1) | – | – | 24.08 ± 3.20^abc % | 25.49 ± 4.31^e % | 1.15 ± 0.25^b % | 0.31 ± 0.03^b % | 51.02 ± 7.70^bc % | 2 | > 50 | metabolites found by non-target U-HPLC-MS analysis (Caco-2 cells [1]): metabolite M6; genotoxic effect (Caco-2 cells [4]; 3 µM): did not show genotoxic effect
5 | COc1c(C)c2c(c(O)c1C/C=C(\C)CCC(=O)O)C(=O)OC2 [MPA, mycophenolic acid, reference compound] | 0.83 ± 0.07 Syn | 0.90 ± 0.04 Add | 0.85 ± 0.05 Syn | 0.83 ± 0.07 Syn (key: Syn: Combination index (CI) < 0.9; Add: 0.9 ≤ CI ≤ 1; Ant: CI > 1) | 0.90 ± 0.04 Add (key: Syn: Combination index (CI) < 0.9; Add: 0.9 ≤ CI ≤ 1; Ant: CI > 1) | 0.85 ± 0.05 Syn (key: Syn: Combination index (CI) < 0.9; Add: 0.9 ≤ CI ≤ 1; Ant: CI > 1) | no significant DNA damage | – | 57.27 ± 0.79^ef % | 39.77 ± 0.52^f % | 0.00 ± 0.00^a % | 0.02 ± 0.00^a % | 97.07 ± 0.27^e % | – | > 50 | IC50 [5]: > 156 nM
6 | C[C@H]1CCCC(=O)CCC/C=C/c2cc(O)cc(O)c2C(=O)O1 [ZEA, zearalenone] | 0.85 ± 0.07 Syn | 0.83 ± 0.03 Syn | 0.92 ± 0.01 Add | 0.85 ± 0.07 Syn (key: Syn: Combination index (CI) < 0.9; Add: 0.9 ≤ CI ≤ 1; Ant: CI > 1) | 0.83 ± 0.03 Syn (key: Syn: Combination index (CI) < 0.9; Add: 0.9 ≤ CI ≤ 1; Ant: CI > 1) | 0.92 ± 0.01 Add (key: Syn: Combination index (CI) < 0.9; Add: 0.9 ≤ CI ≤ 1; Ant: CI > 1) | no significant DNA damage | activated P-gp in dose-dependent manner | 32.23 ± 1.71^bc % | 54.24 ± 2.38^gh % | 0.19 ± 0.01^ab % | 0.05 ± 0.01^a % | 86.70 ± 0.67^de % | 25 | > 50 | concentration range damaging DNA in a concentration-dependent manner (HEK293 cells): 2500 to 20000 nM
7 | C[C@H]1CCC[C@H](O)CCC/C=C/c2cc(O)cc(O)c2C(=O)O1 [α-ZEA] | – | – | – | – | – | – | – | – | – | – | – | – | – | – | – | share of total metabolites produced by Caco-2 cells (Caco-2 cells [6]): 41%
8 | C[C@H]1CCC[C@@H](O)CCC/C=C/c2cc(O)cc(O)c2C(=O)O1 [β-ZEA] | – | – | – | – | – | – | – | – | – | – | – | – | – | – | – | share of total metabolites produced by Caco-2 cells (Caco-2 cells [6]): 32%
